# Active and inactive are the calls of the source.
# Key:
# Beta-galactosidase = Beta-galactosidase (Escherichia coli, UniProt Q8VNN2); experiment: beta-galactosidase enzyme inhibitors and activators, dose response, artefact control for CCR6 antagonist project, biochemical, E. coli enzyme, set 3 (AID 504712); type: functional
# Apelin receptor = Apelin receptor (Homo sapiens, UniProt P35414); experiment: APJ beta-arrestin recruitment antagonism, SAR follow-up, selectivity assay for CCR6 antagonist project, cell-based, luminescent, enzyme-fragment complementation (AID 588359); type: functional
# [1] = Luminescence Cell-Based Dose Retest to Confirm Inhibitors of Cancer Stem Cells. [Related pubchem assays (depositor defined):AID2717, AID2721]; type: functional; conditions: Homo sapiens
# [2] = cytotoxicity in HMLE control line with eGFP shRNA, dose response, counter-screen for HMLE_sh_ECad selective toxicity project, cell-based, HMLE_sh_eGFP, luminescence (AID 463074); type: functional, Homo sapiens;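 further: HMLE human mammary epithelial cells expressing control shRNA against eGFP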
# BJ [3] = experiment: cytotoxicity toward BJ-TERT fibroblasts, dose response, cell-based, RAS-independent, luminescence (AID 1933); type: functional; conditions: Homo sapiens
# cells [4] = type: functional, cell-based
# BJ [5] = experiment: cells; type: functional, cell-based; conditions: Homo sapiens
# cells [6] = type: functional, cell-based; remark: listed apart in the source
# BJ [7] = experiment: cytotoxicity toward BJ-TERT-LT-ST fibroblasts, dose response, cell-based, RAS-independent, luminescence (AID 1935); type: functional; conditions: Homo sapiens;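 further: BJ fibroblasts immortalized with TERT plus LT and ST oncogenes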
# [8] = cytotoxicity toward DRD oncogenic fibroblasts, dose response, cell-based, non-viral oncogenic, luminescence (AID 1934); type: functional; conditions: Homo sapiens
# [9] = target: Heat shock protein HSP 90-alpha (Homo sapiens, UniProt P07900); type: functional, organism-based
# HEK293 [10] = experiment: cytotoxicity in HEK293T NF-kB-Luc cells, SAR follow-up, cytotoxicity control for NF-kB activator project, cell-based, resazurin fluorescence (AID 493251); type: functional; conditions: Homo sapiens
# Jurkat [11] = experiment: SAR Analysis of small molecule inhibitors of T-cell specific antigen receptor-induced NF-kB activation in a Jurkat cell line using a luminescence assay - Set 2. [Related pubchem assays (depositor defined):AID435003, AID435012, AID465]; type: functional, cell-based; conditions: Homo sapiens
# BJ [12] = experiment: cytotoxicity toward Ras-transformed BJeLR fibroblasts, dose response, cell-based, alamar blue fluorescence, cherrypicked samples (AID 2631); type: functional; conditions: Homo sapiens;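 further: confirmatory dose-response assay in RAS-dependent BJ fibroblasts engineered with TERT, LT and ST, with cytotoxicity read by fluorescence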
# HEK293 [13] = experiment: SAR Analysis of small molecule inhibitors of T-cell specific antigen receptor-induced NF-kB activation in a HEK-293T cell line using a luminescence assay - Set 2. [Related pubchem assays (depositor defined):AID435003, AID435012, AID489026]; type: functional, cell-based; conditions: Homo sapiens
# [14] = Shn3 3'UTR reporter inhibitors, dose response, cell-based, Clone20 osteoblasts, firefly luciferase, cherry-picked (AID 624132); type: functional;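 further: firefly luciferase luminescence from reporter carrying the Shn3 3'UTR in osteoblasts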
# [15] = HepG2 cell cytotoxicity, dose response, cytotoxicity control for Shn3 inhibitor project, CellTiter-Glo, cherry-picked (AID 624134); type: functional, cell-based
# [16] = control 3'UTR Renilla luciferase suppression, dose response, counter-screen for Shn3 inhibitor project, cell-based, Clone20-Shn3RL, cherry-picked (AID 624133); type: functional
# HEK293 [17] = experiment: inhibitors of LMP1-driven NF-kB reporter, dose response, cell-based, HEK293, luciferase, cherry-pick (AID 588343); type: functional; conditions: Homo sapiens
# [18] = target: Latent membrane protein 1 (Human herpesvirus 4 (strain B95-8), UniProt P03230); experiment: TES1-eGFP NF-kB reporter inhibition versus Tet-On dsRED, dose response, selectivity assay for LMP1 NF-kB inhibitor project, imaging, HEK293T, dual-color eGFP/dsRED, cherry-picks (AID 588398); type: functional, cell-based
# [19] = NIH-3T3 fibroblast cytotoxicity, dose response, cytotoxicity control, cell-based, fluorescence, Alamar Blue, secondary assay (AID 2327); type: functional;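 further: NIH-3T3 mouse fibroblasts cultured with fluconazole at 8 µg/mL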
# [20] = target: T1, Heat shock factor protein 1 (Mus musculus, UniProt P38532); experiment: inhibition of MG132-induced HSE-luciferase signal, confirmation, cell-based, NIH3T3, luminescence, dose retest (AID 2382); type: functional;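 further: NIH3T3 fibroblasts with HSF1-driven luciferase reporter stressed by proteasome inhibitor MG132; luminescence from HSF1-driven luciferase expression after 8 hours of MG132 stress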
# T1 sequence (P38532 whole entry): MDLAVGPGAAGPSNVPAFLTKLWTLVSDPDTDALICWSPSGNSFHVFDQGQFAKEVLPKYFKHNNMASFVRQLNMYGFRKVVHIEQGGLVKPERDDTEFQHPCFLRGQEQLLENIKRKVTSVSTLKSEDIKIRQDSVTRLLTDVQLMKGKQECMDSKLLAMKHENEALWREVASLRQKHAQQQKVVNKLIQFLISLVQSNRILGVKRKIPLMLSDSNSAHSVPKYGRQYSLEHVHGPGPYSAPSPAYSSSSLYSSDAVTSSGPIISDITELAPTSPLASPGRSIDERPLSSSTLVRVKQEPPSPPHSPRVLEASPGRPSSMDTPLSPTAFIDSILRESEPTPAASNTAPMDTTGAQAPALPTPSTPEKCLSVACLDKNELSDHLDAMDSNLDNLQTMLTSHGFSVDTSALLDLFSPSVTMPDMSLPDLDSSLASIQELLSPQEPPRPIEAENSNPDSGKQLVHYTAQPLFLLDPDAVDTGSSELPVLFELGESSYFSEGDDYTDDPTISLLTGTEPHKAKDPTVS
# [21] = C. albicans growth with fluconazole, confirmation, fluorescence, retest (AID 2467); type: functional, cell-based
# [22] = THP-1 cell cytotoxicity, dose response, cytotoxicity control for non-replicating M. tuberculosis project (AID 489025); type: functional
# cells [23] = type: functional
# [24] = target: T2, Polyadenylate-binding protein 1 (Homo sapiens, UniProt P11940); experiment: PABP1 MLLE–PAM2 interaction inhibitors, dose response, miRNA deadenylation inhibitor project, biochemical, fluorescence polarization, Cy5-PAM2 peptide, secondary (AID 602260); type: functional; conditions: read-out: IC50_Mean
# [25] = target: T2, Polyadenylate-binding protein 1; experiment: PABP1 MLLE–PAM2 binding inhibitor potency, dose response, biochemical, fluorescence polarization, FITC-PAM2 peptide (AID 602259); type: functional; conditions: read-out: IC50_Mean
# [26] = target: T3, Short transient receptor potential channel 4 (Mus musculus, UniProt Q9QUQ5); experiment: mouse TRPC4 channel inhibitors, dose response, cell-based, HEK293 TRPC4/mu-opioid, Fluo-4 calcium (AID 434942); type: functional;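 further: potency of inhibitors blocking the TRPC4 calcium response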
# T3 sequence (Q9QUQ5 whole entry): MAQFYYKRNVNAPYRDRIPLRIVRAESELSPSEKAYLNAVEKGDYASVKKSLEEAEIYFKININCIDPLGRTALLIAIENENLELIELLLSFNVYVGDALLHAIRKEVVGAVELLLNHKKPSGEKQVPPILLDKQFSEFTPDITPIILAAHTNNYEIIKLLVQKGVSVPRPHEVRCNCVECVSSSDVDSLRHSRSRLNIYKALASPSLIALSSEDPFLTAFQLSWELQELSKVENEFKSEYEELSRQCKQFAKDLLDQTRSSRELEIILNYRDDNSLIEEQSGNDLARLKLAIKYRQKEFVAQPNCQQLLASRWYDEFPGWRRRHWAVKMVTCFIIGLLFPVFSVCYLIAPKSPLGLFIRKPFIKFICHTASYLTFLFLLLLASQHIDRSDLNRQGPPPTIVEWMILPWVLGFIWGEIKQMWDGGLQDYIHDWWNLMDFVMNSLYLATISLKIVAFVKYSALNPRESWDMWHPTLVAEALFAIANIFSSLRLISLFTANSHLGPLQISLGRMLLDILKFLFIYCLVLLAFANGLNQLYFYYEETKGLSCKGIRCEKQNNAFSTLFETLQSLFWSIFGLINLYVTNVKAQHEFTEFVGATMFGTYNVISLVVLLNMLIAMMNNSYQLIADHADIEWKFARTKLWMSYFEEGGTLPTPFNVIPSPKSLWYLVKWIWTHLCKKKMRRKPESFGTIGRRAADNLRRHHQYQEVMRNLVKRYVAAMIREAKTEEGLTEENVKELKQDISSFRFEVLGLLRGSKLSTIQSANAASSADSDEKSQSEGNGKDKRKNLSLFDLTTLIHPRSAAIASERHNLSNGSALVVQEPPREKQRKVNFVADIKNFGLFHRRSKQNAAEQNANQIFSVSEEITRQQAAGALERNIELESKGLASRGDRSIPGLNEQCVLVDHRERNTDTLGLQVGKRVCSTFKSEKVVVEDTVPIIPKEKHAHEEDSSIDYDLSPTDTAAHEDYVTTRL
# [27] = target: T3, Short transient receptor potential channel 4; experiment: SAR Analysis for the identification of selective inhibits of the transient receptor potential cation channel C4 (TRPC4): Automated Electrophysiology. [Related pubchem assays (depositor defined):AID2256]; type: functional
# Jurkat [28] = experiment: SAR Analysis of small molecule inhibitors of […] specific antigen receptor-induced NF-kB activation in a Jurkat cell line using a luminescence assay - Set 3. [Related pubchem assays (depositor defined):AID435022, AID435025, AID465]; type: functional, cell-based; conditions: Homo sapiens
# HEK293 [29] = experiment: SAR Analysis of small molecule inhibitors of B-cell specific antigen receptor-induced NF-kB activation in a HEK-293T cell line using a luminescence assay - Set 2. [Related pubchem assays (depositor defined):AID435022, AID435025, AID489021]; type: functional, cell-based; conditions: Homo sapiens
# [30] = target: T4, Neuropeptides B/W receptor type 1 (Homo sapiens, UniProt P48145); experiment: GPR7 antagonist potency, late-stage follow-up, cell-based, fluorescence, dose response, set 5 (AID 588566); type: functional
# T4 sequence (P48145 whole entry): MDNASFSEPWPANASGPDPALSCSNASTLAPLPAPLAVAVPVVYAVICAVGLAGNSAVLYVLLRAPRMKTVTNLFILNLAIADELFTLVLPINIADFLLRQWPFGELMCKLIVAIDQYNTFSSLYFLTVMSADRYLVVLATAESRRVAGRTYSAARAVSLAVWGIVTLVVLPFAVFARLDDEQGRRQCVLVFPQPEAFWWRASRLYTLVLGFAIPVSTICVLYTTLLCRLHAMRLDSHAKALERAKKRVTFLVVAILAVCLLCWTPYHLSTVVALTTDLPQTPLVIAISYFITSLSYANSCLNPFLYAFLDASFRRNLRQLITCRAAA
# [31] = target: Melanin-concentrating hormone receptor 1 (Homo sapiens, UniProt Q99705); experiment: Late-stage fluorescence-based counterscreen for antagonists of the G-protein coupled receptor 7 (GPR7): cell-based dose response assay to identify antagonists of the melanin-concentrating hormone receptor 1 (MCHR1) Set 5.; type: functional
# Sequence of Melanin-concentrating hormone receptor 1 (Q99705 whole entry): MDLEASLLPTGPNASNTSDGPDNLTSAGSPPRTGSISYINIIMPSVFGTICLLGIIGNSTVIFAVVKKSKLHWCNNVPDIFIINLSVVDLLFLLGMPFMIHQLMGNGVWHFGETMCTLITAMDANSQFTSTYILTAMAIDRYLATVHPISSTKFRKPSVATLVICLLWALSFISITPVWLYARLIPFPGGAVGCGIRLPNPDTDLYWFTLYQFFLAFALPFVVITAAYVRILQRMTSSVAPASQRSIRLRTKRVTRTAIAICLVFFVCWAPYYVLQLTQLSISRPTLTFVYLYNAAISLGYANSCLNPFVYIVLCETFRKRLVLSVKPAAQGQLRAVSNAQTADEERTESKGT
# Sequence of Latent membrane protein 1 (P03230 whole entry): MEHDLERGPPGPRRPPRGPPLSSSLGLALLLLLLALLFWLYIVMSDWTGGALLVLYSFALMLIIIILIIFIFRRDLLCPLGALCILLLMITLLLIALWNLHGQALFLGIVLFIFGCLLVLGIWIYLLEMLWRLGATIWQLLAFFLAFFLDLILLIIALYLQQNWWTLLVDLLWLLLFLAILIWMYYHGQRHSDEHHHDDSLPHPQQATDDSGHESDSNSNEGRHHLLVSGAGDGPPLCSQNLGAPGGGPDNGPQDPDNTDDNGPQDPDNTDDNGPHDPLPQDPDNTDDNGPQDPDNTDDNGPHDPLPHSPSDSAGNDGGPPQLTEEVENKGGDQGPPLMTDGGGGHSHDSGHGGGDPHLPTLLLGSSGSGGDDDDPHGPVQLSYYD
# T2 sequence (P11940 whole entry): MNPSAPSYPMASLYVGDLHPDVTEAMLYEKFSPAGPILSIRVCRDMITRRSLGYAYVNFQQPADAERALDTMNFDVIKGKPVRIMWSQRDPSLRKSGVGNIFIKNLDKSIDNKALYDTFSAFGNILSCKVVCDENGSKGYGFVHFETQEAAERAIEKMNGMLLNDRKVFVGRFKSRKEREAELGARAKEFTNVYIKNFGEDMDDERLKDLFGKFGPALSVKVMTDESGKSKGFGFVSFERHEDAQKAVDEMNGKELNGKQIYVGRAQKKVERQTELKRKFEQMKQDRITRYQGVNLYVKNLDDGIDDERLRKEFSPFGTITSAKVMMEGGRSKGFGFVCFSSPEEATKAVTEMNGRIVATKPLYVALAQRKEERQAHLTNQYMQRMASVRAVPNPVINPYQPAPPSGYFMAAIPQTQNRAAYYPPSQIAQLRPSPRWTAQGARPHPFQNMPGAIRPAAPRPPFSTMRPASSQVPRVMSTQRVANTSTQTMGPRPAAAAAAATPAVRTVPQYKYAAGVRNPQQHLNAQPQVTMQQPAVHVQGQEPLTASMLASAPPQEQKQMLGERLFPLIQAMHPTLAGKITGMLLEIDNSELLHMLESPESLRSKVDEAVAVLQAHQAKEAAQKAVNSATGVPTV
# Sequence of Apelin receptor (P35414 whole entry, the tested form may be a part): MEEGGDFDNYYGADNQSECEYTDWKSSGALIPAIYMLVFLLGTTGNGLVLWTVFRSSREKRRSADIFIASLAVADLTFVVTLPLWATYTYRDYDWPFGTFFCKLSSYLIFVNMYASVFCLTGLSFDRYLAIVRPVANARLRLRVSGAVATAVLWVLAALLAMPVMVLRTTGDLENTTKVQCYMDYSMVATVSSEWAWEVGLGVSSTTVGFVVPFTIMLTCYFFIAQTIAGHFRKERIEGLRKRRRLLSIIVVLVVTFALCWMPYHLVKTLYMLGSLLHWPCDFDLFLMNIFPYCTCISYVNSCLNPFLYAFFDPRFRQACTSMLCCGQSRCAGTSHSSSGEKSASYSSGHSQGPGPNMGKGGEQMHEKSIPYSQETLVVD
# Sequence of Beta-galactosidase (Q8VNN2 whole entry, the tested form may be a part): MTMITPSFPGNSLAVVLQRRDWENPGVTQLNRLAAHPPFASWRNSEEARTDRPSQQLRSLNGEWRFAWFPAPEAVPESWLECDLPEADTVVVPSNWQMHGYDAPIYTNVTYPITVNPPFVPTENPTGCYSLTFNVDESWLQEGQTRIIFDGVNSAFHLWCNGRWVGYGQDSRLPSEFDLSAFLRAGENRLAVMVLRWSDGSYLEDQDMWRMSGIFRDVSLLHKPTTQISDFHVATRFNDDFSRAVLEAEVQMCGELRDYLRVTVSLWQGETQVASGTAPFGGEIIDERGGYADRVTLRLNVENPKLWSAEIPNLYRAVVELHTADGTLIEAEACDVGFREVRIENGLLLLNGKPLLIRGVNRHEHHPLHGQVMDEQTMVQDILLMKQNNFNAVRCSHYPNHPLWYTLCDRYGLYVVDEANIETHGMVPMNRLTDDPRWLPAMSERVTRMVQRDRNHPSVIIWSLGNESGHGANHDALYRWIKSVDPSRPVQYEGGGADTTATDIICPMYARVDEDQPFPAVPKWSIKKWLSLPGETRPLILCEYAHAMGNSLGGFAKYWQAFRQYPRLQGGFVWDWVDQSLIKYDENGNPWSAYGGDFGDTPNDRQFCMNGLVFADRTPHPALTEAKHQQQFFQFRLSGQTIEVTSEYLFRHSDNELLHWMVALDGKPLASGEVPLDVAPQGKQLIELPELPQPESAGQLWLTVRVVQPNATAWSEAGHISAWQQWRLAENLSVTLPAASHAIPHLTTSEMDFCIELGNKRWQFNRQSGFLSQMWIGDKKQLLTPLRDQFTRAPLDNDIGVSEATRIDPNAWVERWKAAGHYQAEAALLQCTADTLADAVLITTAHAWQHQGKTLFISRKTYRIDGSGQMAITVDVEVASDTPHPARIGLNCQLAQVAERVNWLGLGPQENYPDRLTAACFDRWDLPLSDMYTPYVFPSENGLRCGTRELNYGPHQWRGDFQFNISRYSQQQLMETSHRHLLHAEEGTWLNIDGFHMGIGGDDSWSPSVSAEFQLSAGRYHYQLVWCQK
structure (smiles),measurement,setting,value
O=C(NNC(=O)c1cc(-c2ccccc2)nn1-c1ccccc1)c1ccccc1,IC50,Beta-galactosidase,> 66.6 µM (inactive)
same,IC50,Apelin receptor,14.8 µM (active)
O=C1Nc2cc(C(=O)N3CCc4ccccc4C3)ccc2S/C1=C\c1ccccc1,AC50,[1],3.43 µM (active)
same,AC50,[2],55.5 µM (active)
CCCCC(=O)NC(c1ccc(C(C)C)cc1)c1ccc2cccnc2c1O (stereo unspecified),EC50,BJ [3],0.534 µM (active)
same,EC50,cells [4],2.94 µM (active)
same,EC50,BJ [5],2.67 µM (active)
same,EC50,cells [6],> 350 µM (not active)
same,EC50,BJ [7],1.5 µM (inconclusive)
same,EC50,[8],4.19 µM (active)
same,AC50,[9],5.41 µM (active)
same,IC50,HEK293 [10],20.2 µM (inactive)
same,IC50,Jurkat [11],3.17 µM (active)
same,EC50,BJ [12],2.13 µM (active)
same,IC50,HEK293 [13],6.67 µM (active)
same,AC50,[14],0.57 µM (active)
same,AC50,[15],> 70 µM (inactive)
same,AC50,[16],0.331 µM (active)
CCOC(=O)c1c(-n2cccc2)sc2c1CCCC2=O,AC50,HEK293 [17],12.3 µM (active)
same,AC50,[18],4.1 µM (active)
COc1ccc(OC2C(=O)N(Cc3ccc4c(c3)OCO4)C2c2sccc2C)cc1 (stereo unspecified),EC50,[19],> 160 µM (inactive)
same,EC50,[20],> 195 µM (not active)
same,EC50,[21],> 38 µM (not active)
same,AC50,[1],29.8 µM (active)
same,AC50,[2],40.4 µM (active)
CN1C(=O)N(C)c2ccc(C=O)c3cccc1c23,CC50,[22],24.6 µM (active)
same,IC50,cells [23],31.1 µM (active)
same,AC50,HEK293 [17],6.36 µM (active)
same,AC50,[18],0.774 µM (active)
same,IC50,[24],37.9 µM (inactive)
same,IC50,[25],58.8 µM (inactive)
O=C(Cc1ccccc1)Nc1ccccc1Sc1ccccc1,EC50,[26],1.88 µM (active)
same,IC50,[27],38.7 µM (active)
COc1ccc(C(=O)Nc2ccc(NC(=O)c3cc4ccccc4o3)cc2)cc1[N+](=O)[O-],IC50,HEK293 [10],> 80 µM (inactive)
same,IC50,Jurkat [11],76.7 µM (inactive)
same,IC50,HEK293 [13],> 80 µM (inactive)
CCOc1ccc(-c2nc(CSCC(=O)NCCc3ccc(Cl)cc3)c(C)o2)cc1,IC50,Jurkat [28],63.8 µM (inactive)
same,IC50,HEK293 [29],> 80 µM (inactive)
same,IC50,HEK293 [10],> 80 µM (inactive)
CCCNC(=O)CSCc1nc(-c2ccc(OCC)cc2)oc1C,IC50,Jurkat [28],> 80 µM (inactive)
same,IC50,HEK293 [29],74.7 µM (inactive)
same,IC50,HEK293 [10],> 80 µM (inactive)
Cc1ccc(C(C#N)c2c(Cl)cnn(Cc3cccc4ccccc34)c2=O)cc1 (stereo unspecified),IC50,[30],0.381 µM (active)
same,IC50,[31],1.24 µM (active)
CCOc1ccc(Oc2c(N3CCCC3)c(Br)nn(Cc3cccc4ccccc34)c2=O)cc1,IC50,[30],> 20 µM (inactive)
same,IC50,[31],> 20 µM (inactive)

# Reference: ChEMBL document CHEMBL1201862, “PubChem BioAssay data set” (2004)
